{"source": "patent US7026353B2", "about": "“Inhibition of Gram positive bacteria” (Unisearch Limited, A.C.N., priority 1998, dated 2006)", "key": {"Staphylococcus aureus [1]": {"tested_on": "Staphylococcus aureus", "experiment": "Initial screening against growth in Nutrient Broth, microplate reader, 9 hours", "type": "cell-based", "conditions": "for % growth compared to the control value: after 9 hr", "procedure": "(§1) All initial screening of six different furanones against growth of Staphylococcus aureus and Staphylococcus epidermidis was performed in a BioRad 3550 Microplate Reader. Ten percent (10%) of an overnight culture (10^8 cells/ml, resulting in final cell densities of 10^6 cells/ml) was added to the growth media. Nutrient Broth, containing furanones at the concentrations 10 and 1 μg/ml. The bacteria were incubated at 37° C. and growth was measured at […] for 9 hours. Cytotoxicity in mammalian systems was measured as inhibition of the growth of mouse fibroblast cells."}, "[2]": {"tested_on": "Staphylococcus epidermidis", "experiment": "Initial screening against growth in Nutrient Broth, microplate reader, 9 hours", "type": "cell-based", "conditions": "for % growth compared to the control value: after 9 hr", "procedure": "as §1"}, "[3]": {"tested_on": "mouse fibroblast cell line L292", "experiment": "Cytotoxicity measured as inhibition of the growth of mouse fibroblast cells", "type": "cell-based", "conditions": "for Lowest concentration of furanones which significantly inhibited the growth of mouse fibroblast cell line: 30% depression of growth deemed significant", "procedure": "as §1"}, "S. aureus 015": {"tested_on": "S. aureus 015", "experiment": "Effect on the growth of ocular bacteria in TSB", "type": "cell-based", "conditions": "for Effect on growth curves: S. aureus strains, FIGS. 3 to 5", "procedure": "(§2) Strains were cultured in 5 ml of TSB with or without SUs in 35° C. water bath with agitation (120 rpm). Growth rates were monitored by reading OD660nm at time intervals of 1, 2, 3, 4, 5, 7, and 24 hours."}, "S. epidermidis 017": {"tested_on": "S. epidermidis 017", "experiment": "Effect on the growth of ocular bacteria in TSB", "type": "cell-based", "conditions": "for Percentage growth compared to the control values: after 24 h, TSB; for Effect on growth curves: S. epidermidis strains, FIGS. 3 to 5", "procedure": "as §2"}, "Corynebacterium 003": {"tested_on": "Corynebacterium 003", "experiment": "Effect on the growth of ocular bacteria in TSB", "type": "cell-based, Corynebacterium sp", "conditions": "for Percentage growth compared to the control values: after 24 h, TSB", "procedure": "as §2"}, "Enterococcus faecalis": {"tested_on": "Enterococcus faecalis", "experiment": "Screening against growth in NB, microplate reader, 24 hours", "type": "cell-based", "conditions": "10 μg/ml, after 24 hr", "procedure": "(§3) A screening of six different furanone compounds against growth of Staphylococcus aureus, Staphylococcus epidermidis. Streptococcus salivarius, Streptococcus pyogenes, Enterococcus faecalis and Micrococcus luteus was performed in) a BioRad 3550 Microplate Reader. Ten percent of overnight cultures were added to the growth media. NB containing furanones at the concentration 10 μg/ml. The bacteria were incubated at 37° C. and growth was measured at 595 nm for 24 hours."}, "Micrococcus luteus": {"tested_on": "Micrococcus luteus", "experiment": "Screening against growth in NB, microplate reader, 24 hours", "type": "cell-based", "conditions": "10 μg/ml, after 24 hr", "procedure": "as §3"}, "Staphylococcus aureus [4]": {"tested_on": "Staphylococcus aureus", "experiment": "Screening against growth in NB, microplate reader, 24 hours", "type": "cell-based", "conditions": "10 μg/ml, after 24 hr", "procedure": "as §3"}, "[5]": {"tested_on": "Staphylococcus epidermidis", "experiment": "Screening against growth in NB, microplate reader, 24 hours", "type": "cell-based", "conditions": "10 μg/ml, after 24 hr", "procedure": "as §3"}, "Streptococcus pyogenes": {"tested_on": "Streptococcus pyogenes", "experiment": "Screening against growth in NB, microplate reader, 24 hours", "type": "cell-based", "conditions": "10 μg/ml, after 24 hr", "procedure": "as §3"}, "Streptococcus salivarius": {"tested_on": "Streptococcus salivarius", "experiment": "Screening against growth in NB, microplate reader, 24 hours", "type": "cell-based", "conditions": "10 μg/ml, after 24 hr", "procedure": "as §3"}}}
{"compound": "CCCCC1=C(Br)C(=CBr)OC1=O", "note": "[Compound 2]", "values": [{"measurement": "% growth compared to the control value", "setting": "Staphylococcus aureus [1]; 1 μg/ml", "result": 87.9, "unit": "%"}, {"measurement": "% growth compared to the control value", "setting": "Staphylococcus aureus [1]; 10 μg/ml", "result": 57.9, "unit": "%"}, {"measurement": "% growth compared to the control value", "setting": "[2]; 1 μg/ml", "result": 63.7, "unit": "%"}, {"measurement": "% growth compared to the control value", "setting": "[2]; 10 μg/ml", "result": 53.2, "unit": "%"}, {"measurement": "Lowest concentration of furanones which significantly inhibited the growth of mouse fibroblast cell line", "setting": "[3]", "result": 150, "unit": "µg/mL"}, {"measurement": "Effect on growth curves", "setting": "S. aureus 015; 100 μg/ml", "result": "inhibited the growth"}, {"measurement": "Percentage growth compared to the control values", "setting": "S. epidermidis 017; 100 μg/ml", "result": 7, "unit": "%"}, {"measurement": "Effect on growth curves", "setting": "S. epidermidis 017; 100 μg/ml", "result": "inhibited the growth"}, {"measurement": "Inhibition of growth", "setting": "Corynebacterium 003; 100 μg/ml", "result": "approximately 86%"}, {"measurement": "Percentage growth compared to the control values", "setting": "Corynebacterium 003; 100 μg/ml", "result": 14, "unit": "%"}, {"measurement": "% growth compared to the control value", "setting": "Enterococcus faecalis", "result": 77, "unit": "%"}, {"measurement": "% growth compared to the control value", "setting": "Micrococcus luteus", "result": 86, "unit": "%"}, {"measurement": "% growth compared to the control value", "setting": "Staphylococcus aureus [4]", "result": 58, "unit": "%"}, {"measurement": "% growth compared to the control value", "setting": "[5]", "result": 53, "unit": "%"}, {"measurement": "% growth compared to the control value", "setting": "Streptococcus pyogenes", "result": 87, "unit": "%"}, {"measurement": "% growth compared to the control value", "setting": "Streptococcus salivarius", "result": 86, "unit": "%"}]}
{"compound": "CCCC(OC(C)=O)C1=C(Br)C(=CBr)OC1=O", "note": "(stereo not drawn) [Compound 4, reference compound]", "values": [{"measurement": "% growth compared to the control value", "setting": "Staphylococcus aureus [1]; 1 μg/ml", "result": 84.2, "unit": "%"}, {"measurement": "% growth compared to the control value", "setting": "Staphylococcus aureus [1]; 10 μg/ml", "result": 34.3, "unit": "%"}, {"measurement": "% growth compared to the control value", "setting": "[2]; 1 μg/ml", "result": 77.1, "unit": "%"}, {"measurement": "% growth compared to the control value", "setting": "[2]; 10 μg/ml", "result": 53.2, "unit": "%"}, {"measurement": "Toxicity against mammalian cell lines", "setting": "[3]", "result": "quite toxic"}, {"measurement": "Lowest concentration of furanones which significantly inhibited the growth of mouse fibroblast cell line", "setting": "[3]", "result": 1, "unit": "µg/mL"}, {"measurement": "% growth compared to the control value", "setting": "Enterococcus faecalis", "result": 75, "unit": "%"}, {"measurement": "% growth compared to the control value", "setting": "Micrococcus luteus", "result": 75, "unit": "%"}, {"measurement": "% growth compared to the control value", "setting": "Staphylococcus aureus [4]", "result": 34, "unit": "%"}, {"measurement": "% growth compared to the control value", "setting": "[5]", "result": 53, "unit": "%"}, {"measurement": "% growth compared to the control value", "setting": "Streptococcus pyogenes", "result": 0, "unit": "%"}, {"measurement": "% growth compared to the control value", "setting": "Streptococcus salivarius", "result": 85, "unit": "%"}]}
{"compound": "O=C1C=C(Br)/C(=C/Br)O1", "note": "[Compound 30]", "values": [{"measurement": "% growth compared to the control value", "setting": "Staphylococcus aureus [1]; 1 μg/ml", "result": 56.6, "unit": "%"}, {"measurement": "Inhibition of growth", "setting": "Staphylococcus aureus [1]; 10 ug/ml", "result": "completely inhibiting growth"}, {"measurement": "% growth compared to the control value", "setting": "Staphylococcus aureus [1]; 10 μg/ml", "result": 0, "unit": "%"}, {"measurement": "% growth compared to the control value", "setting": "[2]; 1 μg/ml", "result": 72.1, "unit": "%"}, {"measurement": "Inhibition of growth", "setting": "[2]; 10 ug/ml", "result": "completely inhibiting growth"}, {"measurement": "% growth compared to the control value", "setting": "[2]; 10 μg/ml", "result": 62.2, "unit": "%"}, {"measurement": "Lowest concentration of furanones which significantly inhibited the growth of mouse fibroblast cell line", "setting": "[3]", "result": 20, "unit": "µg/mL"}, {"measurement": "Percentage growth compared to the control values", "setting": "S. aureus 015; 10 μg/ml, after 24 h, TSB", "result": 97, "unit": "%"}, {"measurement": "Effect on growth curves", "setting": "S. aureus 015; 10 μg/ml", "result": "only slowed down the growth"}, {"measurement": "Percentage growth compared to the control values", "setting": "S. epidermidis 017; 10 μg/ml", "result": 91, "unit": "%"}, {"measurement": "Effect on growth curves", "setting": "S. epidermidis 017; 10 μg/ml", "result": "only slowed down the growth"}, {"measurement": "Effect on growth", "setting": "Corynebacterium 003; 10 μg/ml", "result": "only slowed down the growth"}, {"measurement": "Percentage growth compared to the control values", "setting": "Corynebacterium 003; 10 μg/ml", "result": 90, "unit": "%"}, {"measurement": "Growth reached", "setting": "Corynebacterium 003; 20 μg/ml (as printed in text), after 24 h incubation", "result": 90, "unit": "%"}, {"measurement": "% growth compared to the control value", "setting": "Enterococcus faecalis", "result": 54, "unit": "%"}, {"measurement": "% growth compared to the control value", "setting": "Micrococcus luteus", "result": 86, "unit": "%"}, {"measurement": "% growth compared to the control value", "setting": "Staphylococcus aureus [4]", "result": 0, "unit": "%"}, {"measurement": "% growth compared to the control value", "setting": "[5]", "result": 62, "unit": "%"}, {"measurement": "% growth compared to the control value", "setting": "Streptococcus pyogenes", "result": 50, "unit": "%"}, {"measurement": "% growth compared to the control value", "setting": "Streptococcus salivarius", "result": 73, "unit": "%"}]}
{"compound": "CCCC(F)C1=C(Br)/C(=C/Br)OC1=O", "note": "(stereo not drawn) [Compound 45]", "values": [{"measurement": "% growth compared to the control value", "setting": "Enterococcus faecalis", "result": 85, "unit": "%"}, {"measurement": "% growth compared to the control value", "setting": "Micrococcus luteus", "result": 100, "unit": "%"}, {"measurement": "% growth compared to the control value", "setting": "Staphylococcus aureus [4]", "result": 4, "unit": "%"}, {"measurement": "% growth compared to the control value", "setting": "[5]", "result": 22, "unit": "%"}, {"measurement": "% growth compared to the control value", "setting": "Streptococcus pyogenes", "result": 26, "unit": "%"}, {"measurement": "% growth compared to the control value", "setting": "Streptococcus salivarius", "result": 69, "unit": "%"}]}
